The source made the active and inactive calls. The calls are words filed in the database; no cut-off is given here.
System: Escherichia coli
Test: Antibacterial activity against Escherichia coli assessed as inhibition zone at 250 ug/ml measured after 24 to 45 hrs by disk diffusion method
Assay type: functional

SMILES	Activity
O=C(/C=C/c1ccccc1[N+](=O)[O-])c1ccc(F)cc1	13 mm
CN(C)c1ccc(/C=C/C(=O)c2ccc(F)cc2)cc1	20 mm
O=C(/C=C/c1cccc(Cl)c1)c1ccc(F)cc1	13 mm
COc1ccc(/C=C/C(=O)c2ccc(F)cc2)cc1	13 mm
O=C(/C=C/c1ccc(Br)cc1)c1ccc(F)cc1	20 mm
O=C(/C=C/c1cccc([N+](=O)[O-])c1)c1ccc(F)cc1	13 mm
O=C(/C=C/c1ccccc1)c1ccc(F)cc1	8 mm
Cc1ccc(/C=C/C(=O)c2ccc(F)cc2)cc1	8 mm
O=C(/C=C/c1ccc(Cl)cc1)c1ccc(F)cc1	13 mm

System: Klebsiella
Test: Antibacterial activity against Klebsiella species assessed as inhibition zone at 250 ug/ml measured after 24 to 45 hrs by disk diffusion method
Assay type: functional

SMILES	Activity
O=C(/C=C/c1ccccc1[N+](=O)[O-])c1ccc(F)cc1	13 mm
CN(C)c1ccc(/C=C/C(=O)c2ccc(F)cc2)cc1	13 mm
O=C(/C=C/c1cccc(Cl)c1)c1ccc(F)cc1	13 mm
COc1ccc(/C=C/C(=O)c2ccc(F)cc2)cc1	13 mm
O=C(/C=C/c1ccc(Br)cc1)c1ccc(F)cc1	20 mm
O=C(/C=C/c1cccc([N+](=O)[O-])c1)c1ccc(F)cc1	13 mm
O=C(/C=C/c1ccccc1)c1ccc(F)cc1	8 mm
Cc1ccc(/C=C/C(=O)c2ccc(F)cc2)cc1	8 mm
O=C(/C=C/c1ccc(Cl)cc1)c1ccc(F)cc1	13 mm

System: Achaea janata
Test: Antifeedant activity against fourth instar larvae of Achaea janata L. on Riclmus cammunls leaves assessed as number of leaf discs consumed in 24 hrs at 100 ppm at 26 +/- 1 degC
Assay type: functional

SMILES	Activity
O=C(/C=C/c1ccc(Cl)cc1)c1ccc(F)cc1	0.05

System: Achaea janata
Test: Antifeedant activity against fourth instar larvae of Achaea janata L. on Riclmus cammunls leaves assessed as number of leaf discs consumed in 24 hrs at 150 ppm at 26 +/- 1 degC
Assay type: functional

SMILES	Activity
O=C(/C=C/c1ccc(Cl)cc1)c1ccc(F)cc1	0

System: Achaea janata
Test: Antifeedant activity against fourth instar larvae of Achaea janata L. on Riclmus cammunls leaves assessed as number of leaf discs consumed in 24 hrs at 50 ppm at 26 +/- 1 degC
Assay type: functional

SMILES	Activity
O=C(/C=C/c1ccc(Cl)cc1)c1ccc(F)cc1	0.1

System: Penicillium
Test: Antifungal activity against Penicillium assessed as inhibition zone at 50 ug/ml measured after 72 hrs by drug dilution method
Assay type: functional, organism-based

SMILES	Activity	inhibition
O=C(/C=C/c1ccccc1[N+](=O)[O-])c1ccc(F)cc1	inactive	
CN(C)c1ccc(/C=C/C(=O)c2ccc(F)cc2)cc1		Active
COc1ccc(/C=C/C(=O)c2ccc(F)cc2)cc1		Active
O=C(/C=C/c1ccc(Br)cc1)c1ccc(F)cc1		Active
O=C(/C=C/c1cccc([N+](=O)[O-])c1)c1ccc(F)cc1	inactive	
O=C(/C=C/c1ccccc1)c1ccc(F)cc1	inactive	
O=C(/C=C/c1ccc(Cl)cc1)c1ccc(F)cc1	inactive	

System: Achaea janata
Test: Antifeedant activity against fourth instar larvae of Achaea janata L. on Riclmus cammunls leaves assessed as number of leaf discs consumed in 24 hrs at 200 ppm at 26 +/- 1 degC
Assay type: functional

SMILES	Activity
O=C(/C=C/c1ccccc1[N+](=O)[O-])c1ccc(F)cc1	12
CN(C)c1ccc(/C=C/C(=O)c2ccc(F)cc2)cc1	9
O=C(/C=C/c1cccc(Cl)c1)c1ccc(F)cc1	0.4
COc1ccc(/C=C/C(=O)c2ccc(F)cc2)cc1	9
O=C(/C=C/c1ccc(Br)cc1)c1ccc(F)cc1	0.5
O=C(/C=C/c1cccc([N+](=O)[O-])c1)c1ccc(F)cc1	10
O=C(/C=C/c1ccccc1)c1ccc(F)cc1	8
Cc1ccc(/C=C/C(=O)c2ccc(F)cc2)cc1	9
O=C(/C=C/c1ccc(Cl)cc1)c1ccc(F)cc1	0.1

System: Staphylococcus aureus
Test: Antibacterial activity against Staphylococcus aureus assessed as inhibition zone at 250 ug/ml measured after 24 to 45 hrs by disk diffusion method
Assay type: functional

SMILES	Activity
O=C(/C=C/c1ccccc1[N+](=O)[O-])c1ccc(F)cc1	13 mm
CN(C)c1ccc(/C=C/C(=O)c2ccc(F)cc2)cc1	20 mm
O=C(/C=C/c1cccc(Cl)c1)c1ccc(F)cc1	13 mm
COc1ccc(/C=C/C(=O)c2ccc(F)cc2)cc1	13 mm
O=C(/C=C/c1ccc(Br)cc1)c1ccc(F)cc1	20 mm
O=C(/C=C/c1cccc([N+](=O)[O-])c1)c1ccc(F)cc1	13 mm
O=C(/C=C/c1ccccc1)c1ccc(F)cc1	13 mm
Cc1ccc(/C=C/C(=O)c2ccc(F)cc2)cc1	13 mm
O=C(/C=C/c1ccc(Cl)cc1)c1ccc(F)cc1	13 mm

System: Proteus vulgaris
Test: Antibacterial activity against Proteus vulgaris assessed as inhibition zone at 250 ug/ml measured after 24 to 45 hrs by disk diffusion method
Assay type: functional

SMILES	Activity
O=C(/C=C/c1ccccc1[N+](=O)[O-])c1ccc(F)cc1	13 mm
CN(C)c1ccc(/C=C/C(=O)c2ccc(F)cc2)cc1	13 mm
O=C(/C=C/c1cccc(Cl)c1)c1ccc(F)cc1	13 mm
COc1ccc(/C=C/C(=O)c2ccc(F)cc2)cc1	13 mm
O=C(/C=C/c1ccc(Br)cc1)c1ccc(F)cc1	13 mm
O=C(/C=C/c1cccc([N+](=O)[O-])c1)c1ccc(F)cc1	13 mm
O=C(/C=C/c1ccccc1)c1ccc(F)cc1	8 mm
Cc1ccc(/C=C/C(=O)c2ccc(F)cc2)cc1	8 mm
O=C(/C=C/c1ccc(Cl)cc1)c1ccc(F)cc1	13 mm

System: Candida albicans
Test: Antifungal activity against Candida albicans assessed as inhibition zone at 250 ug/ml measured after 72 hrs by disk diffusion method
Assay type: functional, organism-based

SMILES	Activity	inhibition
O=C(/C=C/c1ccccc1[N+](=O)[O-])c1ccc(F)cc1	inactive	
O=C(/C=C/c1cccc(Cl)c1)c1ccc(F)cc1	inactive	
COc1ccc(/C=C/C(=O)c2ccc(F)cc2)cc1		Active
O=C(/C=C/c1ccc(Br)cc1)c1ccc(F)cc1		Active
O=C(/C=C/c1cccc([N+](=O)[O-])c1)c1ccc(F)cc1	inactive	
O=C(/C=C/c1ccccc1)c1ccc(F)cc1	inactive	

System: Pseudomonas
Test: Antibacterial activity against Pseudomonas assessed as inhibition zone at 250 ug/ml measured after 24 to 45 hrs by disk diffusion method
Assay type: functional

SMILES	Activity
O=C(/C=C/c1ccccc1[N+](=O)[O-])c1ccc(F)cc1	13 mm
CN(C)c1ccc(/C=C/C(=O)c2ccc(F)cc2)cc1	20 mm
O=C(/C=C/c1cccc(Cl)c1)c1ccc(F)cc1	13 mm
COc1ccc(/C=C/C(=O)c2ccc(F)cc2)cc1	13 mm
O=C(/C=C/c1ccc(Br)cc1)c1ccc(F)cc1	13 mm
O=C(/C=C/c1cccc([N+](=O)[O-])c1)c1ccc(F)cc1	13 mm
O=C(/C=C/c1ccccc1)c1ccc(F)cc1	8 mm
Cc1ccc(/C=C/C(=O)c2ccc(F)cc2)cc1	8 mm
O=C(/C=C/c1ccc(Cl)cc1)c1ccc(F)cc1	13 mm

System: Enterococcus faecalis
Test: Antibacterial activity against Enterococcus faecalis assessed as inhibition zone at 250 ug/ml measured after 24 to 45 hrs by disk diffusion method
Assay type: functional

SMILES	Activity
O=C(/C=C/c1ccccc1[N+](=O)[O-])c1ccc(F)cc1	inactive
CN(C)c1ccc(/C=C/C(=O)c2ccc(F)cc2)cc1	inactive
O=C(/C=C/c1cccc(Cl)c1)c1ccc(F)cc1	inactive
COc1ccc(/C=C/C(=O)c2ccc(F)cc2)cc1	20 mm
O=C(/C=C/c1ccc(Br)cc1)c1ccc(F)cc1	20 mm
O=C(/C=C/c1cccc([N+](=O)[O-])c1)c1ccc(F)cc1	inactive
O=C(/C=C/c1ccccc1)c1ccc(F)cc1	inactive
Cc1ccc(/C=C/C(=O)c2ccc(F)cc2)cc1	inactive
O=C(/C=C/c1ccc(Cl)cc1)c1ccc(F)cc1	inactive

System: Aspergillus niger
Test: Antifungal activity against Aspergillus niger assessed as inhibition zone at 50 ug/ml measured after 72 hrs by drug dilution method
Assay type: functional, organism-based

SMILES	Activity	inhibition
O=C(/C=C/c1ccccc1[N+](=O)[O-])c1ccc(F)cc1	inactive	
CN(C)c1ccc(/C=C/C(=O)c2ccc(F)cc2)cc1		Active
O=C(/C=C/c1ccc(Br)cc1)c1ccc(F)cc1		Active
O=C(/C=C/c1cccc([N+](=O)[O-])c1)c1ccc(F)cc1	inactive	
O=C(/C=C/c1ccccc1)c1ccc(F)cc1	inactive	
Cc1ccc(/C=C/C(=O)c2ccc(F)cc2)cc1	inactive	
O=C(/C=C/c1ccc(Cl)cc1)c1ccc(F)cc1	inactive	

Reference: ChEMBL document CHEMBL3045089, “Synthesis, spectral studies, antimicrobial and insect antifeedant activities of some substituted styryl 4-fluorophenyl ketones” (2011)
